Measured values reported in patent US8486382B2, “Method for treating cervical cancer” (ZymoGenetics, Inc., priority 2001, dated 2013).

B1: IL-20: Interleukin-20 (formally called Zcyto10); human polypeptide of 176 amino acids, SEQ ID NO:2 (protein, listed as Homo sapiens)
chain: MKASSLAFSLLSAAFYLLWTPSTGLKTLNLGSCVIATNLQEIRNGFSDIRGSVQAKDGNIDIRILRRTESLQDTKPANRCCLLRHLLRLYLDRVFKNYQTPDHYTLRKISSLANSFLTIKKDLRLCHAHMTCHCGEEAMKKYSQILSHFEKLEPQAAVVKALGELDILLQWMEETE

System: HeLa229
Assay: HeLa229 cytotoxicity assay (MTT readout)
Format: cell-based
Details: 72 hrs
Procedure: We tested IL-20 in a HeLa229 cytotoxicity assay to measure the ability of IL-20 to prevent cells from growing during normal growth conditions. We used MTT reagent (Promega, Madison, WI USA) as our detection and readout for this inhibition assay. Procedure of a cytotoxicity assay:
Day 1—Plate cells out in complete growth media (with serum) at 5000 cells/well in a 96 well format and let them incubate overnight at 37 degrees and 5% CO2.
Day 2—Dump off media and add a dose response of appropriate ligands in complete growth media (IL-20, zmda1, and MDA7 at 10, 100, and 1000 ng/ml.), along with a positive control retinoic acid (100 uM) in complete growth media, while leaving some wells in complete growth media as controls of how the cells normally grow under normal conditions. Put the cells in incubator and let the assay go for 72 hrs.
Day 5—Add 15 ul/well of MTT reagent, let cells inc. for 4 hrs., then add 100 ul of stop solution, let cells inc. for an additional 1 hr., then read the plate on a multilabel counter (Victor2, PerkinElmer Life Sciences Inc., Boston). The MTT protocol will give you two readings, one at a 650 wavelength (background) and one at a 572 wavelength. Subtract the 650 reading from the 572 reading to get your actual output. These numbers are averaged and converted to a % inhibition value.

| Molecule | inhibition at 100 µM (Homo sapiens, HeLa 229, HeLa229 cells, retinoic acid 100 uM (positive control), read-out: inhibition of growth) | maximal inhibition of growth (HeLa229 cells, IL-20 dose response 10, 100, and 1000 ng/ml) |
| --- | --- | --- |
| CC1=C(/C=C/C(C)=C/C=C/C(C)=C/C(=O)O)C(C)(C)CCC1 [Retnoic Acid, retinoic acid] | 53% | – |
| B1 | – | 20% |
